Measurements: patent US20030148518A1, “Method for mass propogation of podophyllum hexandrum royle using embryo culture technique” (priority 2001, published 2003)

Tests used:
[1] = test system: Podophyllum hexandrum emblings; assay: True leaf emergence after embling development and field transfer; details: media supplemented with 2.5 μM Gibberellic acid; after 12 weeks of field transfer
Protocol: (§1) To describe in detail, the method comprises collection of mature pods of P. hexandrum Royle from their natural habitats in the Western Himalayas at an altitude ranging from 2700 m-3500 m above mean sea level during the last week of August and first week of September. Immediately after collection, the seeds were separated from the pulp. Prior to disinfection with 0.1% Bavistin and streptomycin sulphate (0.1%) for 15 minutes, followed by a thorough washing of seeds. After a 1 minute dip in 70% alcohol and surface sterilization in 0.1% mercuric chloride for 7 minutes, all traces of mercuric chloride were finally washed off by 4-5 rinses in sterile distilled water. The surface sterilized seeds were then dissected by a sharp excision with a scalpel blade at the base of the microplyar lobe and embryos were carefully squeezed out of their micropylar groove. The embryos were cultured on B-5 (Gamborg et al., 1968) medium supplemented with 3% sucrose of pH 5.8 adjusted with 1N KOH and HCl prior to the addition of agar (0.8%) and were finally sterilized at […] for 20 minutes. All the cultures were maintained in this medium for one week at 25±2° C. in dark for embryo germination. […]

[2] = test system: Podophyllum hexandrum zygotic embryos; assay: Germination of excised zygotic embryos cultured on different media supplemented with Gibberellic acid; details: 2.5 μM Gibberellic acid in different media (B5, MS, WPM); excised zygotic embryos of different regimes
Protocol: as §1

C=C1C[C@]23C[C@@]1(O)CC[C@H]2[C@@]12C=C[C@H](O)[C@@](C)(C(=O)O1)[C@H]2[C@@H]3C(=O)O [Gibberellic acid] was tested, and the true leaf emergence [1] was “no true leaf emergence was recorded” and the embryo germination [2] was “Germination was evoked in all the media”.
